From a melting point compilation (Tetko et al.; mined from patent text by program, amines drawn as free bases though some values may be those of a salt)

SMILES | melting point [°C]
Cc1ccc(S(=O)(=O)NCCC(C(=O)OC(C)(C)C)C2(CC(C)C)CCN(CCc3ccccc3)C2=O)cc1 (configuration not stated) | 136 to 138
CC(Cc1ccc(OCC(N)=O)cc1)NCC(O)c1ccccc1 (configuration not stated) | 158 to 162
COc1ccccc1N1CCN([C@H]2Cc3c(OC)ccc(OC)c3C[C@H]2O)CC1 (relative stereo) | 213 to 216
CC(C)c1nn(-c2ccc(Br)cn2)cc1CCCO | 96 to 97
CN(C)c1ccc(C=NCCc2cccs2)cc1 | 76.8 to 77
Cc1cccc(CCOc2cccc(-c3cccc(C(=O)O)c3)n2)c1 | 125 to 126
Cc1cc(O)c(C(=O)Nc2ccc(S(=O)(=O)C(F)(F)F)cc2Cl)c(C)c1S(C)=O (configuration not stated) | 205 to 206
O=C1COc2cc(C(=O)N3CCOCC3)ccc2N1 | 186 to 188
O=C(Nc1ccccc1)O[C@@H]1CN=C(c2ccc(Cl)c(Cl)c2)O[C@H]1c1ccccc1 (racemic) | 130
O=C(Nc1cccc(Br)n1)c1cc(-c2ccc(F)cc2)n(C2CCCCO2)n1 (configuration not stated) | 151 to 152
C[C@H]1C[C@@](O)(c2cccc(S(=O)(=O)c3ccc4c(c3F)CCC(=O)N4C)c2)CCO1 | 149 to 151
CCOc1nc(C(=O)O)c2c(n1)nc(OCC)n2Cc1ccc(-c2ccccc2-c2nnn[nH]2)cc1 | 140 to 141
COc1ccc(CN2Cc3c(-c4noc(C5CC5)n4)ncn3-c3ccc(Cl)cc3C2=O)c(OC)c1 | 198 to 205
CCCc1n[nH]c2c(=O)[nH]c(-c3cc(S(=O)(=O)N4CCN(C)CC4)ccc3OCC)nc12 | 236 to 239
COCCc1nc2c(N)nc3ccccc3c2n1CCCCCCCCNC(=O)c1ccccc1 | 133 to 138
COc1ccc2c(c1OCc1ccc(C(=O)O)cc1)CC(C(=O)O)N(C(=O)C(c1ccccc1)c1ccccc1)C2 (racemic) | 190 to 192
N#CCN1C(=O)N(c2ccc(C#N)c(C(F)(F)F)c2)C(=O)C1(CF)CF | 125
Oc1ccc(C2(c3ccc(O)cc3)CCCCC2)cc1 | 181 to 182

Further lines, results first:

melting point [°C] | SMILES
230 to 232 | CC(=O)Nc1cnc(-c2cc(Cl)cc(Cl)c2Cl)c(NC(=O)C(C)C)n1
262 to 264 | CNS(=O)(=O)c1cn(C)c2ccc(OC)cc2c1=O
124 | COCCOCN1C(C)=C(C(=O)O)[C@@H](c2cccc([N+](=O)[O-])c2)C(C(=O)OC)=C1C
179 to 186 | CCn1c(C)nc2cc(S(C)(=O)=O)c(Cl)c(N)c21
368 to 370 | NC(=O)c1nc(-c2cccc(O)c2)nc2c1[nH]c(=O)n2CC1CCCCC1
100 | Cc1cc(-n2ccnc2)c2cccc(OCc3c(Cl)ccc(S(=O)(=O)N4CCC[C@H]4C(=O)NCC4CCN(CC(=O)OC(C)(C)C)CC4)c3Cl)c2n1
55 | NCCOC(=C1C2CC3CC(C2)CC1C3)c1cccc(O)c1
69 to 70 | Cc1nn(-c2ccccc2)c(C)c1CC#N
190 | N[C@@H](Cc1c[nH]c2ccccc12)c1nc2c(C(F)(F)F)cccc2c(O)c1C(=O)Nc1nccs1
146 to 150 | CCCCCCCCCCC(=O)Nc1ccn(C2OC(CO)C(O)C2O)c(=O)n1 (configuration not stated)
200 to 201 | Cn1cc(CS(C)(=O)=O)c(=O)c2ccccc21
79 to 82 | CN(NC(=O)OCc1ccccc1)C(=O)NCC(F)F
117 to 118 | Cc1nc(C)c(C(O)=C(C#N)c2nn(-c3ccccc3)nc2C)s1
161 to 163 | CC(C)(CCCC(=O)O)c1cc(C(=O)O)c(O)c(C(C)(C)CCCC(=O)O)c1
168 | Cc1ccc(CN(C)CCOc2ccc(NC(=O)c3cccc4c(=O)c5ccccc5[nH]c34)cc2)cc1
146 to 148 | CCOC(=O)C(=O)Nc1cccc(OCCO)c1C(N)=O
138 to 140 | CCOC(=O)c1c(N2CCN(C(=O)OCC)CC2)c2ccc(C)nc2n(CC)c1=O
115 | OC(C(c1cccc(Cl)c1)n1ccnc1)C12CC3CC(CC(C3)C1)C2 (configuration not stated)
125 to 128 | CC(=O)CCC1(C(N)=O)c2ccccc2-c2ccccc21
